Series [1] deals with HL-60 cells. Description: Uptake of [3H]-labeled compounds. The series is classed as cell-based, human. As to conditions: [3H]-labeled compound. As for the experimental part:
(1R, 2S) 2-(N-[^3 H]-myristoylamino)-1-phenyl-1propanol ([^3 H] C14-L-e-APP-1) and (1S, 2R) 2-(N-[^3 H]-myristoylamino)-1-phenyl-1-propanol ([^3 H]C14-D-e-APP-1) were prepared following the general procedures of Example 1 for synthesis of N-acyl-amino alcohols using [^3 H]-myristoyl chloride. Specific activity was ~3×10^3 cpms/nmol. [^3 H] myristoyl chloride was made from 9,10-[^3 H]-myristic acid and oxalyl chloride in dry benzene.
In studies using [^3 H]-labeled C14-D-e-APP-1 and C14-L-e-APP-1, uptake of the two compounds was nearly identical with 21% of [3 H]-C14-D-e-APP-1 taken up and 20% of [3 H]-C14-L-e-APP-1 taken up.

Series [2] deals with HL-60 cells. Description: HL-60 differentiation, H2O2 generation. The series is classed as cell-based, human. How it is done: (§1) Human myelocytic leukemia HL-60 cells (20-45 passages (American Type Culture Collection, Rockville, Md., accession no. CCL 240) were obtained and grown in RPMI 1640 medium (Sigma Chemical Co., St. Louis, Mo.) containing 10% fetal calf serum at 37° C. in 5% CO2 incubator at a cell density of 2×10^5 cells/mi. The cells were washed once with phosphate buffered saline (PBS) and resuspended in serum-free media containing insulin (5 mg/liter) and transferrin (5 mg/liter) for 2-3 hours before treatment with various compounds.
Therefore, 3 μM C14-L-t-APPD was applied to HL-60 cells either alone or in combination with subthreshold levels (0.3 nM) of 1,25-dihydroxyvitamin D3 (D3), and cell differentiation was determined at 60 and 108 hours following treatment by quantitating […] generation, a marker of HL-60 differentiation. Subthreshold levels of D3 refers to levels of D3 that are too low to induce differentiation of HL60 cells.
H2 O2 production was quantitated as described in Goodwin, B. J. and Weinberg, J. B., J. Clin. Invest. 70:699-706 (1982) and Pick, E. and Mizel, D. J. Immunol. Methods 46: 211-226 (1981). For comparison, HL60 cell differentiation obtained with 2 μM C2-ceramide alone and 0.3 nM vitamin D3 are were also determined.

Series [3] relates to sphingomyelin in HL-60 cells. As to conditions: previous study, Okazaki, T., et al.; cited from earlier work.
Series [4] deals with HL-60 cells. Description: HL-60 differentiation, reduction of Nitro blue tetrazolium (NBT). The series is classed as cell-based, human. Particulars: 3 μM, three days; for cells acquiring the ability to reduce NBT: control cells 10%. As for the experimental part:
as §1
HL-60 cells were treated with 3 μM of C14-D-e-APP-1 or 3 μM C14-L-e-APP-1 for three days in accordance with the procedure described in Example 3D. Cell differentiation was determined by the ability of differentiated cells to reduce Nitro blue tetrazolium (NBT) as described in Okazaki, T. et. al., J. Biol. Chem. 265:15823-15831 (1990).

In series [5] the test system is HL-60 cells. Put plainly: HL-60 cell growth/proliferation, cells counted with a hemocytometer. Particulars: for activity at 1 µM / activity at 2 µM / activity at 3 µM / activity at 4 µM / activity at 5 µM / IC50: Homo sapiens; for cell density: starting density 2×10^5 cells/ml; for IC50: read-out: IC50%. It counts as cell-based, human. As for the experimental part: as §1
HL-60 cells were treated with 3 μM of Cn-L-t-APPD with acyl chain lengths of C6, C8, C10, C12, C14, C16, and C18 (m=4, 6, 8, 10, 12, 14 and 16) in fresh ehtanol solution or with an ethanol vehicle and cell growth was determined following three days of treatment. Cell growth was quantified using a hemocytometer. Cell viability was judged by the ability to exclude trypan blue dye. Viability was always more than 80% unless otherwise described.
HL-60 cells (starting cell density of 2×10^5 cells/ml) were treated with different concentrations of C14-L-t-APPD and cells were counted following 24 and 72 hours of treatment. The results are representative of three experiments. A 1μM dose of C14-L-t-APPD had little or no effect on cell growth at 24 or 72 hours (approximately 105% and 130% of control, respectively). A 2μM dose inhibited cell growth to approximately 65% of the control at both 24 and 72 hours. […] The IC50% was approximately 2 μM (10 fmol/cell). IC50% is the concentration of test compound that causes 50% inhibition of cell growth in comparison with controls. Thus, similar to results with C2-ceramide, C14-APPD inhibited cell proliferation at different durations of treatment.
HL-60 cells (starting cell density of 2×10^5 cells/ml) were treated with 3 μM Cn-L-t-APPD derivatives with N-acyl chain lengths of C6, C8, C10, C12, C14, C16, and C18 (m=4,6,8,10, 12, 14, and 16) and cells were counted at 0, 12, 36, 60, 84 and 108 hours post treatment. The results are representative of 3 experiments.
N-acyl derivatives of 2-amino-1-(4'-nitrophenyl)-1,3-propanediol (Cn-D-t-ANPPD) were tested to determine the effects of chain length on HL-60 cell growth as described in Examples 3 A. HL-60 cells (at a starting cell density of 2×10^5 cells/ml) were treated with 3 μM of the diff analogs (C6, C8, C10, C12, C14, C16 and C18) of Cn-D-t-ANPPD, and cell growth was determined at three days. The control received no Cn-D-t-ANPPD. Treatment of HL-60 cells with C2-ceramide is included for comparison.
HL-60 cells were treated with the indicated concentrations and cell growth was determined following three days of treatment as described in Example 3B.
The suitability of phenylaminopropanediol derivatives as analogs of ceramide allowed further investigation of the structural requirements for ceramide-mediated biology. For these experiments, C14 (N-myristoyl) derivatives of different phenylaminoalcohols were synthesized and examined for their biologic activity. HL-60 cells (starting cell density of 2×10^5 cells/ml) were treated with 3 μM of C14 derivatives C14-L-t-APPD, C14-D-t-ANPPD, C14-D-e-APP-1, C14-L-e-APP-1, C14-APP-3 and C14-D-APP3. The structures of these compounds are provided in Table I. Cell growth was determined at 3 days as described in Example 3A. The results shown are averages of two determinations, and are representative of five different experiments.
and C14-L-e-APP-1 HL-60 cells were treated as described in Example 3B. growth was determined after 3 days of treatment.

Series [6] has as its system HL-60 cells. Particulars: Okazaki et al.; cited from earlier work.
Series [7] relates to HL-60 cells. Particulars: Okazaki et al.; cited from earlier work. The source holds these as a separate data set.
[8] abbreviates: Example 5, 3 μM C14 derivatives, 3 days.
The mark [9] stands for this setting: HL-60, 72 h, Example 5, Table IV, 3 days, read-out: CELL GROWTH (% OF CONTROL).
The mark [10] stands for this setting: HL-60, 72 h, Example 5, Table IV, 3 μM, 3 days, read-out: CELL GROWTH (% OF CONTROL).
Where [11] appears, read: HL-60, 24 h, Example 3B, 24 hours, read-out: cell growth, % of control.
[12] abbreviates: HL-60, 72 h, Example 3B, 72 hours, read-out: cell growth, % of control.

Where two headings read alike, the source gives them in different places.

In turn, `[3H]C(CCCC)C([3H])CCCCCCCC(=O)N[C@@H](C)[C@H](O)c1ccccc1` (stereo partly drawn) [[3 H]-C14-L-e-APP-1, (1R, 2S) 2-(N-[^3 H]-myristoylamino)-1-phenyl-1propanol] yielded an uptake in the series with HL-60 cells [1] of 20%.

As to `C=C1/C(=C\C=C2/CCC[C@]3(C)[C@@H]([C@H](C)CCCC(C)(C)O)CC[C@@H]23)C[C@@H](O)C[C@@H]1O` [1,25-dihydroxyvitamin D3, reference compound], the H2O2 generation entry in the series on HL-60 cells [2] (0.3 nM 1,25-dihydroxyvitamin D3, 60 hours) was “approximately 0.4 nmol H2O2 /10^5 cells”; with HL-60 cells [2] (0.3 nM 1,25-dihydroxyvitamin D3, 108 hours) it was ~0.2 nmol/10^5 cells. The “hydrolysis of sphingomyelin (in words)” value in series [3] is recorded as “caused hydrolysis of sphingomyelin in HL-60 cells”.

In the case of `CCCCCCCCCCCCCC(=O)N[C@@H](C)[C@H](O)c1ccccc1` [C14-L-e-APP-1], the “level of differentiation (in words)” value in the series with HL-60 cells [4] (NBT reduction) is “little activity over control”. In the series on HL-60 cells [4], the “cells acquiring the ability to reduce NBT” value was found to be 12%. In addition, the “inhibition of HL-60 cell growth (in words)” value in the series with HL-60 cells [5] (Example 5, Table IV experiment, 1-5 μM, 3 days) was “no activity”. In the series with HL-60 cells [5] (setting [8]), the “cell growth, % of control” value is 87%. In the series on HL-60 cells [5] (setting [9]), the activity at 1 µM came to 101%, the activity at 2 µM amounted to 100%, the activity at 4 µM amounted to 100% and the activity at 5 µM was 99%. Also, in the series on HL-60 cells [5] (setting [10]), the activity at 3 µM worked out at 99%.

Regarding `CCCCCCCCCCCCC/C=C/[C@@H](O)[C@@H](N)CO` [sphingosine, Sphingosine], the “HL-60 cell growth (in words)” value in the series on HL-60 cells [6] is reported as “inhibit HL-60 cell growth”. Further, the “HL-60 cell differentiation (in words)” value in the series with HL-60 cells [7] was “do not mimic the effects of ceramide on cell differentiation”.

Compound `[3H]C(CCCC)C([3H])CCCCCCCC(=O)N[C@H](C)[C@@H](O)c1ccccc1` (stereo partly drawn) [[3 H]-C14-D-e-APP-1, (1S, 2R) 2-(N-[^3 H]-myristoylamino)-1-phenyl-1-propanol] yielded an uptake in the series with HL-60 cells [1] of 21%.

Turning to `CCCCCCCCCCCCCC(=O)N[C@@H](CO)[C@@H](O)c1ccccc1` [C14-L-t-APPD, N-MYRISTOYL-L-THREO-2-AMINO-1-PHENYL-1,3-PROPANDIOL], the “effect of combination on cell differentiation (in words)” value with HL-60 cells [2] (3 μM C14-L-t-APPD + 0.3 nM 1,25-dihydroxyvitamin D3) is reported as “synergistic effect on cell differentiation”. The “H2O2 generation, combination” value in the series on HL-60 cells [2] (3 μM C14-L-t-APPD + 0.3 nM 1,25-dihydroxyvitamin D3, 60 hours) is recorded as “approximately 1.1 nmol H2O2 /10^5 cells”; with HL-60 cells [2] (3 μM C14-L-t-APPD + 0.3 nM 1,25-dihydroxyvitamin D3, 108 hours), ~1.0 nmol H2O2 /10^5 cells. The H2O2 generation entry is on record as “approximately 0.3 nmol/10^5 cells” with HL-60 cells [2] (3 μM C14-L-t-APPD alone, 60 hours) and ~0.5 nmol/10^5 cells in the series with HL-60 cells [2] (3 μM C14-L-t-APPD alone, 108 hours). The “effect on differentiation relative to C2-ceramide (in words)” value in the series with HL-60 cells [2] (3 μM C14-L-t-APPD vs 2 μM C2-ceramide) was “nearly identical to those of 2 μM C2-ceramide”. Besides, the “cell growth, % of control” value in the series on HL-60 cells [5] (Example 3A, 3 μM Cn-L-t-APPD, three days) is ~15%. The IC50% per cell entry with HL-60 cells [5] (Example 3B, 50% inhibition of cell growth, 2×10^5 cells/ml) is on record as “approximately 10 fmol/cell”. Moreover, the “potency relative to C2-ceramide (in words)” value in the series with HL-60 cells [5] (Example 3C, 3 μM) was “equally potent to C2-ceramide”. Also, the cell density came to 100000 mL⁻¹ in the series on HL-60 cells [5] (Example 3C, 3 μM, 84 hours) and 200000 mL⁻¹ with HL-60 cells [5] (Example 3C, 3 μM, 108 hours). Also, the “inhibition of cell growth (in words)” value in the series with HL-60 cells [5] (Example 3C, 3 μM, time course to 108 hours) is “able to inhibit cell growth by significant amounts”. Moreover, the activity at 1 µM is ~105% in the series on HL-60 cells [5] (setting [11]) and ~130% in the series on HL-60 cells [5] (setting [12]). The activity at 2 µM with HL-60 cells [5] (setting [11]) and in the series with HL-60 cells [5] (setting [12]) was ~65% throughout. The activity at 3 µM in the series with HL-60 cells [5] (HL-60, 24 h, Example 3B, 3 μM, 24 hours, read-out: cell growth, % of control) was < 10%; with HL-60 cells [5] (HL-60, 72 h, Example 3B, 3 μM, 72 hours, read-out: cell growth, % of control), < 10%. Besides, the activity at 4 µM in the series with HL-60 cells [5] (setting [11]) and with HL-60 cells [5] (setting [12]) was < 10% each time. Besides, the IC50 – broadly, the concentration that inhibits the measured activity by half – in the series on HL-60 cells [5] (HL-60, Example 3B, 50% inhibition of cell growth, 2×10^5 cells/ml, 24 and 72 hours) is ~2000 nM.

Turning to `CCCCCCCCCCCCCC(=O)N[C@H](C)[C@@H](O)c1ccccc1` [C14-D-e-APP-1], in the series with HL-60 cells [4], the “cells acquiring the ability to reduce NBT” value was 42%. Also, the “IC50% per cell number” value in the series with HL-60 cells [5] (Example 5, Table IV experiment, HL-60 growth, 3 days) is listed as 125 fmol/10^5 cells. For the same compound, the “cell growth, % of control” value in the series on HL-60 cells [5] (setting [8]) is listed as “approximately 15%”. Also, the “activity relative to reference (in words)” value in the series with HL-60 cells [5] (Example 5, 3 μM, 3 days, inhibition of cell growth) is recorded as “as effective as C2-ceramide”. Moreover, the IC50 with HL-60 cells [5] (72 h, Example 5, Table IV experiment, HL-60 growth, 3 days) amounted to 2500 nM. Besides, in the series with HL-60 cells [5] (setting [9]), the activity at 1 µM came to 100%, the activity at 2 µM came out at 71%, the activity at 4 µM is 20% and the activity at 5 µM was 10%. The activity at 3 µM in the series with HL-60 cells [5] (setting [10]) was 45%.
